Reference: US7585871B2, “Phenanthridine carbonyl phenols” (Wyeth, priority 2004, dated 2009)

What was measured:
human ERα [1] = target: T1, human ERα (Homo sapiens, UniProt P03372); assay: Creatine kinase (CK) assay in ERα infected HAECT-1 cells; type: cell-based; settings: for EC50: creatine kinase in lysate of ERα infected HAECT-1 cells; for CK (% E2): efficacy relative to E2, value in parentheses after the EC50
T1 construct: expressed in transfected cells; host or cells: HAECT-1 cells (immortalized human aortic endothelial cells) infected with Ad5-wt-hERα adenovirus
T1 sequence (P03372 1-595): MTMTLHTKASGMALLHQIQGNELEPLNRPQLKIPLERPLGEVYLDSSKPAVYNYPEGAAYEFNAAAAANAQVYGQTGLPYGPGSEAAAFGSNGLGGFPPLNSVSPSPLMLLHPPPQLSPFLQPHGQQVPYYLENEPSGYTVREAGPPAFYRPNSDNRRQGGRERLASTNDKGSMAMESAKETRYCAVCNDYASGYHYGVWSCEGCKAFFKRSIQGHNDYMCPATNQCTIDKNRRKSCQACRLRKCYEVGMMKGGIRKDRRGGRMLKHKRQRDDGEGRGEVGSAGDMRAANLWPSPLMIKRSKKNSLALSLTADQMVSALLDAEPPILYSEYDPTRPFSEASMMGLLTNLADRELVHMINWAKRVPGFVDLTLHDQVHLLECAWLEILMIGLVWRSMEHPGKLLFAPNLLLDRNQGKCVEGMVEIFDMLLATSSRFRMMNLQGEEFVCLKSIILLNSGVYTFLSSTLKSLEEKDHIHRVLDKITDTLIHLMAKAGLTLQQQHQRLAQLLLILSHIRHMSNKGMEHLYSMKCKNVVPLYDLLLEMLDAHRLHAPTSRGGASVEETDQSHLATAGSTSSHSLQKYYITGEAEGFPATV
Experimental: (§1) After four hours, cells were washed with EBM-BSA and incubated overnight in the same medium. Following overnight incubation, cells were washed with EBM-BSA and infected for 2 hours with 6 ml of a 1:10 dilution of Ad5-3x(NFκB).Luc virus (Adenovirus luciferase expression vector driven by 3 repeats of the MHC NFκb site 5′ to the thymidine kinase promoter) in EBM-BSA. After two hours, cells were washed and incubated at 34° C. for 1 hour. […] Control (no ER infection) cells were processed as above without Ad5-wt-hERα virus infection.
(§2) ERα infected HAECT-1 cells or control cells were thawed, diluted 42× in warm EBM-BSA, plated into 96-well plates at 0.1 ml/well and incubated for 4 h at 34° C. […] After 15-20 h, cells are lysed with 50 ul of Promega Cell Culture Lysis reagent for ˜5 min at room temp on shaker. After lysing, 15 ul of lysate is transferred to luminometer plates for luciferase determination. […] Creatine kinase was determined from the rate of increase in A340 following addition of 100 uL of CK assay reagent (Sigma, cat. No 47-10) to the remainder of the cell lysate.
(§3) For IC50 and EC50 calculations, mean IL-6, luciferase or CK values versus log10 of the compound concentration were fitted to a four parameter logistic equation. The IC50/EC50 value, ‘Hill slope’, upper and lower limits of the curve were iteratively estimated.

human ERα [2] = target: T1, human ERα; assay: IL-6 luciferase (IL6-luc) assay in ERα infected HAECT-1 cells; type: cell-based; settings: for IC50: ERα infected HAECT-1 cells, IL-1β, Ad5-IL-6(1250 bp).Luc virus, 15-20 h; for IL6-luc (% E2): efficacy relative to E2, value in parentheses after the IC50
Experimental: as §1, §2, §3

| EC50 (human ERα [1]) | CK (% E2) (human ERα [1]) | IC50 (human ERα [2]) | IL6-luc (% E2) (human ERα [2]) | melting point | CK (% E2) at a single concentration (human ERα [1]; @ 1 μM) | Compound |
| --- | --- | --- | --- | --- | --- | --- |
| 90 nM | 37% | 4.5 nM | 95% | 193 to 195 °C |  | CC1c2cc(F)ccc2-c2ccc(F)cc2N1C(=O)c1ccc(O)cc1 (racemic) [Example 42, 4-[(3,8-difluoro-6-methylphenanthridin-5(6H)-yl)carbonyl]phenol] |
| 307 nM | −29% | 271 nM | 107% |  |  | C[C@@H]1c2cc(F)ccc2-c2ccccc2N1C(=O)c1ccc(Cl)c(O)c1 [Example 11, 2-chloro-5-{[(6R)-8-fluoro-6-methylphenanthridin-5(6H)-yl]carbonyl}phenol] |
| 8 nM | 20% | 1 nM | 107% | 184 to 187 °C |  | C[C@@H]1c2ccccc2-c2ccc(F)cc2N1C(=O)c1ccc(O)cc1O (single isomer, unassigned) [Example 40] |
| 69 nM | 32% | 6 nM | 120% | 273.5 to 276 °C |  | C[C@@H]1c2ccccc2-c2ccc(Cl)cc2N1C(=O)c1ccc(O)cc1 [Example 28, 4-{[(6R)-3-chloro-6-methylphenanthridin-5(6H)-yl]carbonyl}phenol] |
| 28 nM | 20% | 6 nM | 114% | 235.7 to 236.8 °C |  | C[C@@H]1c2ccccc2-c2ccc(F)cc2N1C(=O)c1ccc(O)cc1 (single isomer, unassigned) [Example 37] |
| 141 nM | 26% | 9 nM | 103% |  |  | C[C@@H]1c2ccccc2-c2ccc(Cl)cc2N1C(=O)c1cccc(O)c1 [Example 25, 3-{[(6R)-3-chloro-6-methylphenanthridin-5(6H)-yl]carbonyl}phenol] |
| 3 nM | 38% | 2 nM | 106% | 98 to 100 °C |  | CC[C@@H]1c2cc(F)ccc2-c2ccccc2N1C(=O)c1ccc(O)cc1O [Example 22, 4-{[(6R)-6-ethyl-8-fluorophenanthridin-5(6H)-yl]carbonyl}benzene-1,3-diol] |
|  |  | 40 nM | 134% | 101 to 102 °C | 50% @ 1 μM | CC[C@@H]1c2cc(F)ccc2-c2ccccc2N1C(=O)c1cccc(O)c1 [Example 21, 3-{[(6R)-6-ethyl-8-fluorophenanthridin-5(6H)-yl]carbonyl}phenol] |
